Results: PubChem BioAssay AID1259407 (Chemical Carcinogenesis Research Information System (CCRIS), 2018)
Active and inactive are the calls of the source. No rule for the calls is given here.

Test system: CCRIS mutagenicity, Ames/micronucleus/aberration tests
Test: CCRIS mutagenicity studies
[1] = Test System: AMES SALMONELLA TYPHIMURIUM, Strain/Indicator: TA98, Metabolic Activation: NONE, Method: STANDARD PLATE
[2] = Test System: AMES SALMONELLA TYPHIMURIUM, Strain/Indicator: TA100, Metabolic Activation: NONE, Method: STANDARD PLATE
[3] = Test System: AMES SALMONELLA TYPHIMURIUM, Strain/Indicator: TA98, Metabolic Activation: RAT, LIVER, S-9, AROCLOR 1254, Method: STANDARD PLATE
[4] = Test System: AMES SALMONELLA TYPHIMURIUM, Strain/Indicator: TA98, Metabolic Activation: HAMSTER, LIVER, S-9, AROCLOR 1254 (30%), Method: PREINCUBATION
[5] = Test System: AMES SALMONELLA TYPHIMURIUM, Strain/Indicator: TA98, Metabolic Activation: NONE, Method: PREINCUBATION
[6] = Test System: AMES SALMONELLA TYPHIMURIUM, Strain/Indicator: TA98, Metabolic Activation: RAT, LIVER, S-9, AROCLOR 1254 (30%), Method: PREINCUBATION
[7] = Test System: AMES SALMONELLA TYPHIMURIUM, Strain/Indicator: TA100, Metabolic Activation: HAMSTER, LIVER, S-9, AROCLOR 1254 (30%), Method: PREINCUBATION
[8] = Test System: AMES SALMONELLA TYPHIMURIUM, Strain/Indicator: TA100, Metabolic Activation: NONE, Method: PREINCUBATION
[9] = Test System: AMES SALMONELLA TYPHIMURIUM, Strain/Indicator: TA100, Metabolic Activation: RAT, LIVER, S-9, AROCLOR 1254 (30%), Method: PREINCUBATION

## Cc1ccc(-c2nc(-c3ccc(C)cc3C)[nH]c2-c2ccc(C)cc2)cc1
[1]
  mutagenic call: active; positive
Test System: AMES SALMONELLA TYPHIMURIUM, Strain/Indicator: TA98, Metabolic Activation: RAT LIVER S-9, 3-METHYLCHOLANTHRENE, SODIUM PHENOBARBITAL, Method: STANDARD PLATE
  mutagenic call: active; positive
[2]
  mutagenic call: active; positive
Test System: AMES SALMONELLA TYPHIMURIUM, Strain/Indicator: TA100, Metabolic Activation: RAT LIVER S-9, 3-METHYLCHOLANTHRENE, SODIUM PHENOBARBITAL, Method: STANDARD PLATE
  mutagenic call: active; positive

## COc1nsc2c(OCC3CO3)cccc12 (configuration not stated)
[2]
  mutagenic call: active; positive

## Oc1c(O)c(Cl)c(Cl)c(Cl)c1Cl
Test System: CHINESE HAMSTER V-79, Strain/Indicator: V-79/6-THIOGUANINE (HGPRT), Metabolic Activation: NONE, Method: SUSPENSION/PLATE
  mutagenic call: inactive; negative
Test System: CHINESE HAMSTER V-79, Strain/Indicator: V-79/6-THIOGUANINE, Metabolic Activation: NONE, Method: STANDARD PLATE
  mutagenic call: inactive; negative
Test System: CHINESE HAMSTER V-79, Strain/Indicator: V-79/6-THIOGUANINE, Metabolic Activation: PRIMARY RAT HEPATOCYTES, Method: STANDARD PLATE
  mutagenic call: inactive; negative
Test System: CHINESE HAMSTER V-79, Strain/Indicator: V-79/OUABAIN, Metabolic Activation: NONE, Method: SUSPENSION/PLATE
  mutagenic call: inactive; negative

## Cc1cnc2c(ccc3c2nc(N)n3C)n1
Test System: AMES SALMONELLA TYPHIMURIUM, Strain/Indicator: TA98, Metabolic Activation: RAT, LIVER, S-9, AROCLOR 1254, Method: PREINCUBATION
  mutagenic call: active; positive
[3]
  mutagenic call: active; positive

## NC(=O)C1(C(N)=O)OC1C(=O)c1ccccc1 (configuration not stated)
Test System: AMES SALMONELLA TYPHIMURIUM, Strain/Indicator: TA98, Metabolic Activation: NONE, Method: DISK ASSAY
  mutagenic call: inactive; negative
[1]
  mutagenic call: inactive; negative
Test System: AMES SALMONELLA TYPHIMURIUM, Strain/Indicator: TA98, Metabolic Activation: RAT, LIVER, S-9, AROCLOR 1254, Method: DISK ASSAY
  mutagenic call: inactive; negative
[3]
  mutagenic call: active; positive
[2]
  mutagenic call: inactive; negative
Test System: AMES SALMONELLA TYPHIMURIUM, Strain/Indicator: TA100, Metabolic Activation: RAT, LIVER, S-9, AROCLOR 1254, Method: STANDARD PLATE
  mutagenic call: inactive; negative

## CC(C)(c1ccc(O)cc1)c1ccc(O)cc1 (tested in a mixture with another compound)
End Point: IN VITRO CHROMOSOMAL ABERRATIONS, Test System: CHL CELLS, Metabolic Activation: NONE
  mutagenic call: active; positive (structural changes)
End Point: IN VITRO CHROMOSOMAL ABERRATIONS, Test System: CHL CELLS, Metabolic Activation: RAT, LIVER, S-9, SODIUM PHENOBARBITAL AND 5,6-BENZOFLAVONE
  mutagenic call: inactive; negative; authors report equivocal results for structural changes at 0.63 and 1.

## CCSCCC(N)C(=O)O (configuration not stated)
Test System: AMES SALMONELLA TYPHIMURIUM, Strain/Indicator: TA97, Metabolic Activation: HAMSTER, LIVER, S-9, AROCLOR 1254 (10%), Method: PREINCUBATION
  mutagenic call: inactive; negative
Test System: AMES SALMONELLA TYPHIMURIUM, Strain/Indicator: TA97, Metabolic Activation: HAMSTER, LIVER, S-9, AROCLOR 1254 (30%), Method: PREINCUBATION
  mutagenic call: inactive; negative
Test System: AMES SALMONELLA TYPHIMURIUM, Strain/Indicator: TA97, Metabolic Activation: NONE, Method: PREINCUBATION
  mutagenic call: inactive; negative
Test System: AMES SALMONELLA TYPHIMURIUM, Strain/Indicator: TA97, Metabolic Activation: RAT, LIVER, S-9, AROCLOR 1254 (10%), Method: PREINCUBATION
  mutagenic call: inactive; negative
Test System: AMES SALMONELLA TYPHIMURIUM, Strain/Indicator: TA97, Metabolic Activation: RAT, LIVER, S-9, AROCLOR 1254 (30%), Method: PREINCUBATION
  mutagenic call: inactive; negative
Test System: AMES SALMONELLA TYPHIMURIUM, Strain/Indicator: TA98, Metabolic Activation: HAMSTER, LIVER, S-9, AROCLOR 1254 (10%), Method: PREINCUBATION
  mutagenic call: inactive; negative
[4]
  mutagenic call: inactive; negative
[5]
  mutagenic call: inactive; negative
Test System: AMES SALMONELLA TYPHIMURIUM, Strain/Indicator: TA98, Metabolic Activation: RAT, LIVER, S-9, AROCLOR 1254 (10%), Method: PREINCUBATION
  mutagenic call: inactive; negative
[6]
  mutagenic call: inactive; negative
Test System: AMES SALMONELLA TYPHIMURIUM, Strain/Indicator: TA100, Metabolic Activation: HAMSTER, LIVER, S-9, AROCLOR 1254 (10%), Method: PREINCUBATION
  mutagenic call: inactive; negative
[7]
  mutagenic call: inactive; negative
[8]
  mutagenic call: inactive; negative
Test System: AMES SALMONELLA TYPHIMURIUM, Strain/Indicator: TA100, Metabolic Activation: RAT, LIVER, S-9, AROCLOR 1254 (10%), Method: PREINCUBATION
  mutagenic call: inactive; negative
[9]
  mutagenic call: inactive; negative
Test System: AMES SALMONELLA TYPHIMURIUM, Strain/Indicator: TA104, Metabolic Activation: HAMSTER, LIVER, S-9, AROCLOR 1254 (10%), Method: PREINCUBATION
  mutagenic call: inactive; negative
Test System: AMES SALMONELLA TYPHIMURIUM, Strain/Indicator: TA104, Metabolic Activation: HAMSTER, LIVER, S-9, AROCLOR 1254 (30%), Method: PREINCUBATION
  mutagenic call: inactive; negative
Test System: AMES SALMONELLA TYPHIMURIUM, Strain/Indicator: TA104, Metabolic Activation: NONE, Method: PREINCUBATION
  mutagenic call: inactive; negative
Test System: AMES SALMONELLA TYPHIMURIUM, Strain/Indicator: TA104, Metabolic Activation: RAT, LIVER, S-9, AROCLOR 1254 (10%), Method: PREINCUBATION
  mutagenic call: inactive; negative
Test System: AMES SALMONELLA TYPHIMURIUM, Strain/Indicator: TA104, Metabolic Activation: RAT, LIVER, S-9, AROCLOR 1254 (30%), Method: PREINCUBATION
  mutagenic call: inactive; negative
Test System: AMES SALMONELLA TYPHIMURIUM, Strain/Indicator: TA1535, Metabolic Activation: HAMSTER, LIVER, S-9, AROCLOR 1254 (10%), Method: PREINCUBATION
  mutagenic call: inactive; negative
Test System: AMES SALMONELLA TYPHIMURIUM, Strain/Indicator: TA1535, Metabolic Activation: HAMSTER, LIVER, S-9, AROCLOR 1254 (30%), Method: PREINCUBATION
  mutagenic call: inactive; negative
Test System: AMES SALMONELLA TYPHIMURIUM, Strain/Indicator: TA1535, Metabolic Activation: NONE, Method: PREINCUBATION
  mutagenic call: inactive; negative
Test System: AMES SALMONELLA TYPHIMURIUM, Strain/Indicator: TA1535, Metabolic Activation: RAT, LIVER, S-9, AROCLOR 1254 (10%), Method: PREINCUBATION
  mutagenic call: inactive; negative
Test System: AMES SALMONELLA TYPHIMURIUM, Strain/Indicator: TA1535, Metabolic Activation: RAT, LIVER, S-9, AROCLOR 1254 (30%), Method: PREINCUBATION
  mutagenic call: inactive; negative

## CCCCCCCCCCOC[N+](C)(C)Cc1ccccc1
Test System: BACILLUS SUBTILIS, Strain/Indicator: H17/REC, Metabolic Activation: NONE, Method: STANDARD PLATE
  mutagenic call: inactive; negative
Test System: BACILLUS SUBTILIS, Strain/Indicator: M45, Metabolic Activation: NONE, Method: STANDARD PLATE
  mutagenic call: inactive; negative

## Cc1ccccc1N=Nc1c(O)ccc2ccccc12
[4]
  mutagenic call: inactive; negative
[5]
  mutagenic call: inactive; negative
[6]
  mutagenic call: inactive; negative
[7]
  mutagenic call: active; positive
[8]
  mutagenic call: inactive; negative
[9]
  mutagenic call: inactive; negative
